Reference: patent US20230123334A1, “AMINO LIPID COMPOUND, PREPARATION METHOD THEREFOR, AND APPLICATION THEREOF” (SHENZHEN SHENXIN BIOTECHNOLOGY CO., LTD., priority 2020, published 2023)

How the values were obtained:
[1] = tested on: HEK293 cells; test: Preliminary screening as DNA vectors, GFP transfection of HEK293 cells; assay type: cell-based; conditions: HEK293 cells; lipid/DOPE liposome with 75 ng plasmid DNA (psin-EGFP-IRES-Puro); number of cells expressing GFP divided by total number of nuclei (Hoechst)
Procedure, shortened: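 HEK293 cells in DMEM/10% FBS transfected with 75 ng EGFP plasmid per well complexed with amino lipid/DOPE liposomes in pH 5.6 sodium acetate. Hoechst nuclear stain added 20-24 h post-transfection, then cells cultured another 20-24 h. Confocal imaging gives GFP-positive cells as % of total nuclei.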

[2] = tested on: HEK293 cells; test: Preliminary screening as mRNA vectors, EGFP mRNA transfection of HEK293 cells; assay type: cell-based; conditions: HEK293 cells, 96-well plates, EGFP mRNA 50 ng per well; percentage of GFP fluorescent cells relative to total number of cells (Hoechst)
Procedure, shortened: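 HEK293 cells in DMEM plus 10% FBS transfected in 96-well format with 50 ng EGFP mRNA per well; Lipofectamine2000 served as positive control. Read-out is the percentage of GFP-fluorescent cells among total cells, counted by Hoechst nuclear stain.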

Row | SMILES | Absolute DNA transfection efficiency in HEK293 cells [1] [%] | Absolute mRNA transfection efficiency in HEK293 cells [2] [%]
1 | CCCCCCCCCCCCCNc1nc(NCCN2CCOCC2)nc(N(CCCCCCCCCCCC)CCCCCCCCCCCC)n1 [N13^2N12D2] | 0.1 | 0.5
2 | CCCCCCCCCCCCCNc1nc(NCCN2CCCC2)nc(N(CCCCCCCCCCCC)CCCCCCCCCCCC)n1 [N13^2N12D3] | 0.6 | 7.3
3 | CCCCCCCCCCCCCNc1nc(NCCN2CCCCC2)nc(N(CCCCCCCCCCCC)CCCCCCCCCCCC)n1 [N13^2N12D4] | 0.8 | 4.5
4 | CCCCCCCCCCCCCNc1nc(NCCN2CCN(C)CC2)nc(N(CCCCCCCCCCCC)CCCCCCCCCCCC)n1 [N13^2N12D5] | 0.0 | 4.9
5 | CCCCCCCCCCCCCNc1nc(NCCCN(C)C)nc(N(CCCCCCCCCCCC)CCCCCCCCCCCC)n1 [N13^2N12D6] | 1.3 | 3.9
6 | CCCCCCCCCCCCCNc1nc(NCCN(CC)CC)nc(N(CCCCCCCCCCCC)CCCCCCCCCCCC)n1 [N13^2N12D7] | 0.2 | 2.9
7 | CCCCCCCCCCCCCNc1nc(NCCCN2CCOCC2)nc(N(CCCCCCCCCCCC)CCCCCCCCCCCC)n1 [N13^2N12D8] | 0.0 | 2.3
8 | CCCCCCCCCCCCCNc1nc(NCCCN2CCN(C)CC2)nc(N(CCCCCCCCCCCC)CCCCCCCCCCCC)n1 [N13^2N12D9] | 1.7 | 2.3
9 | CCCCCCCCCCCCCNc1nc(NCC2CCN(C)CC2)nc(N(CCCCCCCCCCCC)CCCCCCCCCCCC)n1 [N13^2N12D10] | 0.0 | 0.0
10 | CCCCCCCCCCCCCCCNc1nc(NCCN(C)C)nc(N(CCCCCCCCCCCC)CCCCCCCCCCCC)n1 [N15^2N12D1] | 0.9 | 0.0
11 | CCCCCCCCCCCCCCCNc1nc(NCCN2CCOCC2)nc(N(CCCCCCCCCCCC)CCCCCCCCCCCC)n1 [N15^2N12D2] | 0.5 | 0.0
12 | CCCCCCCCCCCCCCCNc1nc(NCCN2CCCC2)nc(N(CCCCCCCCCCCC)CCCCCCCCCCCC)n1 [N15^2N12D3] | 2.4 | 0.0
13 | CCCCCCCCCCCCCCCNc1nc(NCCN2CCCCC2)nc(N(CCCCCCCCCCCC)CCCCCCCCCCCC)n1 [N15^2N12D4] | 2.1 | 2.9
14 | CCCCCCCCCCCCCCCNc1nc(NCCN2CCN(C)CC2)nc(N(CCCCCCCCCCCC)CCCCCCCCCCCC)n1 [N15^2N12D5] | 2.8 | 3.7
15 | CCCCCCCCCCCCCCCNc1nc(NCCCN(C)C)nc(N(CCCCCCCCCCCC)CCCCCCCCCCCC)n1 [N15^2N12D6] | 6.3 | 9.0
16 | CCCCCCCCCCCCCCCNc1nc(NCCN(CC)CC)nc(N(CCCCCCCCCCCC)CCCCCCCCCCCC)n1 [N15^2N12D7] | 1.3 | 0.0
17 | CCCCCCCCCCCCCCCNc1nc(NCCCN2CCOCC2)nc(N(CCCCCCCCCCCC)CCCCCCCCCCCC)n1 [N15^2N12D8] | 0.9 | 0.9
18 | CCCCCCCCCCCCCCCNc1nc(NCCCN2CCN(C)CC2)nc(N(CCCCCCCCCCCC)CCCCCCCCCCCC)n1 [N15^2N12D9] | 1.7 | 0.0
19 | CCCCCCCCCCCCCCCNc1nc(NCC2CCN(C)CC2)nc(N(CCCCCCCCCCCC)CCCCCCCCCCCC)n1 [N15^2N12D10] | 0.0 | 3.5
20 | CCCCCCCCCCCCCCCCNc1nc(NCCN(C)C)nc(N(CCCCCCCCCCCC)CCCCCCCCCCCC)n1 [N16^2N12D1] | 0.0 | 3.4

Row | SMILES | Absolute DNA transfection efficiency in HEK293 cells [1] [%] | Absolute mRNA transfection efficiency in HEK293 cells [2] [%]
21 | CCCCCCCCCCCCCCCCNc1nc(NCCN2CCOCC2)nc(N(CCCCCCCCCCCC)CCCCCCCCCCCC)n1 [N16^2N12D2] | 0.4 | 0.0
22 | CCCCCCCCCCCCCCCCNc1nc(NCCN2CCCC2)nc(N(CCCCCCCCCCCC)CCCCCCCCCCCC)n1 [N16^2N12D3] | 2.0 | 4.0
23 | CCCCCCCCCCCCCCCCNc1nc(NCCN2CCCCC2)nc(N(CCCCCCCCCCCC)CCCCCCCCCCCC)n1 [N16^2N12D4] | 3.2 | 0.0
24 | CCCCCCCCCCCCCCCCNc1nc(NCCN2CCN(C)CC2)nc(N(CCCCCCCCCCCC)CCCCCCCCCCCC)n1 [N16^2N12D5] | 0.6 | 0.0
25 | CCCCCCCCCCCCCCCCNc1nc(NCCCN(C)C)nc(N(CCCCCCCCCCCC)CCCCCCCCCCCC)n1 [N16^2N12D6] | 0.5 | 0.0
26 | CCCCCCCCCCCCCCCCNc1nc(NCCN(CC)CC)nc(N(CCCCCCCCCCCC)CCCCCCCCCCCC)n1 [N16^2N12D7] | 1.1 | 3.0
27 | CCCCCCCCCCCCCCCCNc1nc(NCCCN2CCOCC2)nc(N(CCCCCCCCCCCC)CCCCCCCCCCCC)n1 [N16^2N12D8] | 0.4 | 4.3
28 | CCCCCCCCCCCCCCCCNc1nc(NCCCN2CCN(C)CC2)nc(N(CCCCCCCCCCCC)CCCCCCCCCCCC)n1 [N16^2N12D9] | 0.5 | 0.0
29 | CCCCCCCCCCCCCCCCNc1nc(NCC2CCN(C)CC2)nc(N(CCCCCCCCCCCC)CCCCCCCCCCCC)n1 [N16^2N12D10] | 1.5 | 0.0
30 | CCCCCCCCCCCCCCCCCCNc1nc(NCCN(C)C)nc(N(CCCCCCCCCCCC)CCCCCCCCCCCC)n1 [N18^2N12D1] | 1.0 | 0.4
31 | CCCCCCCCCCCCCCCCCCNc1nc(NCCN2CCOCC2)nc(N(CCCCCCCCCCCC)CCCCCCCCCCCC)n1 [N18^2N12D2] | 0.0 | 0.1
32 | CCCCCCCCCCCCCCCCCCNc1nc(NCCN2CCCC2)nc(N(CCCCCCCCCCCC)CCCCCCCCCCCC)n1 [N18^2N12D3] | 1.5 | 3.4
33 | CCCCCCCCCCCCCCCCCCNc1nc(NCCN2CCCCC2)nc(N(CCCCCCCCCCCC)CCCCCCCCCCCC)n1 [N18^2N12D4] | 0.9 | 1.2
34 | CCCCCCCCCCCCCCCCCCNc1nc(NCCN2CCN(C)CC2)nc(N(CCCCCCCCCCCC)CCCCCCCCCCCC)n1 [N18^2N12D5] | 0.7 | 0.7
35 | CCCCCCCCCCCCCCCCCCNc1nc(NCCCN(C)C)nc(N(CCCCCCCCCCCC)CCCCCCCCCCCC)n1 [N18^2N12D6] | 1.3 | 2.1
36 | CCCCCCCCCCCCCCCCCCNc1nc(NCCN(CC)CC)nc(N(CCCCCCCCCCCC)CCCCCCCCCCCC)n1 [N18^2N12D7] | 0.2 | 0.7
37 | CCCCCCCCCCCCCCCCCCNc1nc(NCCCN2CCOCC2)nc(N(CCCCCCCCCCCC)CCCCCCCCCCCC)n1 [N18^2N12D8] | 0.4 | 2.3
38 | CCCCCCCCCCCCCCCCCCNc1nc(NCCCN2CCN(C)CC2)nc(N(CCCCCCCCCCCC)CCCCCCCCCCCC)n1 [N18^2N12D9] | 0.6 | 0.6
39 | CCCCCCCCCCCCCCCCCCNc1nc(NCC2CCN(C)CC2)nc(N(CCCCCCCCCCCC)CCCCCCCCCCCC)n1 [N18^2N12D10] | 0.7 | 2.2
